The record followed here is patent US20210169959A1, “TERMINALIA FERDINANDIANA EXTRACT AND PRODUCTS CONTAINING EXTRACT OF TERMINALIA FERDINANDIANA FOR ANTIMICROBIAL OR ANTIBACTERIAL APPLICATIONS” (RISING PHOENIX INDUSTRIES PTY LTD, priority 2017, published 2021).

In general, mortality refers to the share of the test organisms that died. The term IC50 denotes the concentration needed to halve the response being measured.

In one data set the test system is Clostridium perfringens. Briefly: microbe, parasite or virus in culture. The format is cell-based.
For a further data set, the system named is Bacillus anthracis. Briefly: microbe, parasite or virus in culture. Type of data set: cell-based.
The test system of a further data set is human dermal fibroblast. The settings on record: for Toxicity Compound Alone HDF: 24 hours exposure.
Data set [1] relates to Artemia franciscana nauplii. The settings on record: in vivo.
Another data set concerns Artemia nauplii. The settings on record: for Toxicity Compound Alone ALA: 24 hours exposure.
The test system of data set [2] is Giardia duodenalis trophozoites, sheep S2 strain. Briefly: G. duodenalis trophozoite proliferation, sheep S2 strain. To be noted: Sheep S2 Strain.
In data set [3] the test system is Giardia duodenalis trophozoites, ATCC203333. In words: G. duodenalis trophozoite proliferation, ATCC203333 (metronidazole sensitive). To be noted: ATCC203333.
The test system of data set [4] is Giardia duodenalis trophozoites. Briefly: G. duodenalis trophozoite proliferation (strain not specified or several strains together). The format is cell-based. The settings on record: pure compounds at 300 μg/mL; all three G. duodenalis strains.
For data set [5], the system named is Giardia duodenalis trophozoites, ATCC PRA-251. Briefly: G. duodenalis trophozoite proliferation, ATCC PRA-251 (metronidazole resistant). The settings on record: ATCC PRA-251.
Setting [6] is: in combination with ascorbic acid.
[7] abbreviates: read-out: IC50 Single Compound, compound alone.

Some results are limits rather than exact numbers.

As for `CC1(C)S[C@@H]2[C@H](NC(=O)[C@H](N)c3ccccc3)C(=O)N2[C@H]1C(=O)O` [ampicillin], the zone of inhibition at 10 µg/disc turned out to be 13 ± 1 mm in the data set with Clostridium perfringens (Clostridium perfringens, read-out: zones of inhibition) and 10 ± 0.7 mm with Bacillus anthracis (Bacillus anthracis, read-out: zones of inhibition).

As for `[K+].[K+].[O]=[Cr](=[O])([O-])[O][Cr](=[O])(=[O])[O-]` [potassium dichromate, Potassium dichromate, reference compound], in the data set with human dermal fibroblast, the “Toxicity Compound Alone HDF” value amounted to 42 µg/mL. In addition, in [1], the mortality was determined as 100% and the “onset of nauplii death (time of exposure)” value is recorded as at most 3 h. Further, the “Toxicity Compound Alone ALA” value in the data set on Artemia nauplii is 37 µg/mL.

In the case of eujavonic acid, the figures for the “IC50 Single Compound” value in [2] (compound alone), in data set [3] (compound alone) and in data set [5] (compound alone) were 1438 µg/mL, 1683 µg/mL and 1850 µg/mL, respectively. Also, the “Class of Interaction” value in data set [2] (setting [6]), in [3] (setting [6]) and in data set [5] (setting [6]) was “Additive” each time. The ΣFIC50 in data set [2] (setting [6]) amounted to 0.58; in data set [3] (setting [6]) it was 0.64; in data set [5] (setting [6]), 0.72. For the same compound, the figures for the IC50 in data set [2] (setting [7]), in data set [3] (setting [7]) and in data set [5] (setting [7]) were 6.04 mM, 7.07 mM and 7.77 mM, respectively. For the same compound, the “Toxicity Compound Alone HDF” value in the data set on human dermal fibroblast is “CND”. For the same compound, the “Toxicity Compound/ascorbic acid combination HDF” value in the data set on human dermal fibroblast (setting [6]) is above 500 µg/mL. The “inhibition of trophozoite proliferation” value in data set [4] is given as around 20%. Also, in the data set on Artemia nauplii, the “Toxicity Compound Alone ALA” value was “CND”. Also, the “Toxicity Compound/ascorbic acid combination ALA” value with Artemia nauplii (setting [6]) was above 500 µg/mL.

In the case of penicillin, the zones of inhibition was determined as 12.3±0.3 mm with Clostridium perfringens (10 μL extract per 6 mm disc, penicillin 2 μg, ampicillin 10 μg, mean ± SEM) and 8.3±0.6 mm in the data set on Bacillus anthracis (10 μL extract per 5 mm disc, penicillin 2 μg, ampicillin 10 μg, mean ± SEM).
